Reference: ChEMBL document CHEMBL1151757, “Synthesis, radiosynthesis, and biological evaluation of fluorine-18-labeled 2beta-carbo(fluoroalkoxy)-3beta-(3'-((Z)-2-haloethenyl)phenyl)nortropanes: candidate radioligands for in vivo imaging of the serotonin transporter with positron emission tomography” (J Med Chem, 2008)

Key:
Assay type in all cases: ADME, organism-based, Macaca fascicularis
[1] = Ratio of drug uptake in pons to cerebellum in anesthetized cynomolgus monkey after 105 mins postinjection; details: in vivo, 1.75 h
[2] = Ratio of drug uptake in medulla to cerebellum in anesthetized cynomolgus monkey after 0.5 mins postinjection; details: in vivo
[3] = Ratio of drug uptake in medulla to cerebellum in anesthetized cynomolgus monkey after 155 mins postinjection; details: in vivo
[4] = Drug uptake in anesthetized cynomolgus monkey brain occipital lobe after 4.5 mins postinjection; details: in vivo, 0.075 h
[5] = Drug uptake in anesthetized cynomolgus monkey brain occipital lobe after 6.5 mins postinjection; parameters: unit not given here; details: in vivo
[6] = Drug uptake in anesthetized cynomolgus monkey brain occipital lobe after 15.5 mins postinjection; details: in vivo
[7] = Drug uptake in anesthetized cynomolgus monkey brain occipital lobe after 27.5 mins postinjection; details: in vivo
[8] = Drug uptake in anesthetized cynomolgus monkey brain occipital lobe after 65 mins postinjection; details: in vivo
[9] = Drug uptake in anesthetized cynomolgus monkey brain occipital lobe after 95 mins postinjection; details: in vivo
[10] = Drug uptake in anesthetized cynomolgus monkey brain occipital lobe after 105 mins postinjection; details: in vivo, 1.75 h
[11] = Drug uptake in anesthetized cynomolgus monkey brain occipital lobe after 215 mins postinjection; details: in vivo
[12] = Drug uptake in anesthetized cynomolgus monkey brain occipital lobe after 235 mins postinjection; details: in vivo
[13] = Drug uptake in anesthetized cynomolgus monkey brain frontal lobe after 2.5 mins postinjection; details: in vivo
[14] = Drug uptake in anesthetized cynomolgus monkey brain frontal lobe after 4.5 mins postinjection; details: in vivo, 0.075 h
[15] = Drug uptake in anesthetized cynomolgus monkey brain frontal lobe after 12.5 mins postinjection; details: in vivo
[16] = Drug uptake in anesthetized cynomolgus monkey brain frontal lobe after 45 mins postinjection; details: in vivo, 0.75 h
[17] = Drug uptake in anesthetized cynomolgus monkey brain frontal lobe after 65 mins postinjection; details: in vivo
[18] = Drug uptake in anesthetized cynomolgus monkey brain frontal lobe after 75 mins postinjection; details: in vivo, 1.25 h
[19] = Drug uptake in anesthetized cynomolgus monkey brain frontal lobe after 115 mins postinjection; details: in vivo
[20] = Drug uptake in anesthetized cynomolgus monkey brain frontal lobe after 165 mins postinjection; details: in vivo, 2.75 h
[21] = Ratio of drug uptake in midbrain to cerebellum in anesthetized cynomolgus monkey after 215 mins postinjection; details: in vivo
[22] = Ratio of drug uptake in midbrain to cerebellum in anesthetized cynomolgus monkey after 225 mins postinjection; details: in vivo, 3.75 h
Putamen [23] = test: Drug uptake in anesthetized cynomolgus monkey brain putamen after 125 mins postinjection; details: in vivo
Putamen [24] = test: Drug uptake in anesthetized cynomolgus monkey brain putamen after 215 mins postinjection; details: in vivo
[25] = Ratio of drug uptake in occipital lobe to cerebellum in anesthetized cynomolgus monkey after 185 mins postinjection; details: in vivo
[26] = Ratio of drug uptake in frontal lobe to cerebellum in anesthetized cynomolgus monkey after 3.5 mins postinjection; details: in vivo
Midbrain [27] = test: Drug uptake in anesthetized cynomolgus monkey brain midbrain after 225 mins postinjection; details: in vivo, 3.75 h
Pons [28] = test: Drug uptake in anesthetized cynomolgus monkey brain pons after 0.5 mins postinjection; details: in vivo
Pons [29] = test: Drug uptake in anesthetized cynomolgus monkey brain pons after 27.5 mins postinjection; details: in vivo
Pons [30] = test: Drug uptake in anesthetized cynomolgus monkey brain pons after 85 mins postinjection; details: in vivo
Midbrain [31] = test: Drug uptake in anesthetized cynomolgus monkey brain midbrain after 185 mins postinjection; details: in vivo
Medulla = test: Drug uptake in anesthetized cynomolgus monkey brain medulla after 205 mins postinjection; details: in vivo
[32] = Drug uptake in anesthetized cynomolgus monkey brain cerebellum after 195 mins postinjection; details: in vivo, 3.25 h
Putamen [33] = test: Drug uptake in anesthetized cynomolgus monkey brain putamen after 205 mins postinjection; details: in vivo

Structure (SMILES): O=C(OCCC[18F])C1C2CCC(CC1c1cccc(/C=C\I)c1)N2 (centres undefined)
- Ratio [1]: 1.2
- Ratio [2]: 1.5
- Ratio [3]: 1.8
- Drug uptake [4]: 2.06
- Drug uptake [5]: 2.83
- Drug uptake [6]: 3.53
- Drug uptake [7]: 4
- Drug uptake [8]: 3.86
- Drug uptake [9]: 3.35
- Drug uptake [10]: 3.18
- Drug uptake [11]: 2.08
- Drug uptake [12]: 1.99
- Drug uptake [13]: 0.5
- Drug uptake [14]: 1.31
- Drug uptake [15]: 2.24
- Drug uptake [16]: 2.84
- Drug uptake [17]: 2.77
- Drug uptake [18]: 2.76
- Drug uptake [19]: 2.56
- Drug uptake [20]: 2.08
- Ratio [21]: 1.8
- Ratio [22]: 2
- Drug uptake (Putamen [23]): 4.31
- Drug uptake (Putamen [24]): 3.13
- Ratio [25]: 1.1
- Ratio [26]: 0.4
- Drug uptake (Midbrain [27]): 3.76
- Drug uptake (Pons [28]): 0.01
- Drug uptake (Pons [29]): 4.39
- Drug uptake (Pons [30]): 4.12
- Drug uptake (Midbrain [31]): 4.05
- Drug uptake (Medulla): 3.76
- Drug uptake [32]: 2.16
- Drug uptake (Putamen [33]): 3.31
